Here are results for 13 molecules from patent publication US10953100B2, “Compounds and therapeutic uses thereof” (priority 2015, dated 2021).

For the test, the target named is Anti-alpha galactosyl IgG antibody. Briefly: ELISA assay: streptavidin-captured biotin compound, binding of anti-alpha galactosyl IgG antibody. Set-up: species or system human. As to conditions: geometric mean with standard error in brackets; streptavidin plate, anti-alpha galactosyl IgG 0.5 μg/mL; read-out: Concentration at half maximal binding. The procedure:
Compounds containing F (representing a carbohydrate molecule capable of binding to a human anti-alpha-galactosyl antibody) and L (as biotin) were assayed for binding at both ends of the compound using an enzyme-linked immunosorbent assay (ELISA). Streptavidin-coated plates captured biotin to the surface of the plate and the binding of anti-alpha galactosyl antibodies to the alpha-galactosyl moiety was reported by a secondary antibody labelled with HRP (Horse Radish Peroxidase).
Compounds were titrated 1.5 fold from a top dose of 50 nM in phosphate buffered saline (PBS) (Sigma D8537)+0.025% DMSO (Dimethyl Sulphoxide, Sigma D8418). Streptavidin immobilizer 96-well plates (nunc 436014) were coated with 100 μL of compound at room temperature for 2 hours shaking at 500 rpm. Plates were washed with 2×200 μL PBS-T (PBS with 0.05% Tween 20 (Sigma P9416)) and 1×200 μL PBS-T with a 5 minute incubation shaking at room temperature, prior to being blocked for 1 hour at room temperature with 1% Bovine Serum Albumin (BSA, Sigma A2153) in PBS-T. After removing the blocking buffer, 50 μL of Anti-alpha galactosyl IgG antibody (Anti-alpha-galactosyl antibody was purified from human IVIG (Gammagard) by affinity purification using an alpha-galactosyl-HSA (Human Serum Albumin) sepharose column by Rockland Immunochemicals Inc.) at 0.5 μg/mL in PBS-T+1% BSA and incubated shaking at room temperature for 1 hour.
Plates were washed 2×200 μL PBS-T and 3×200 μL PBS-T with a 5 minute incubation, shaking at room temperature before the addition of 50 μL 1:5000 Goat Anti-Human IgG-HRP (horseradish peroxidase) conjugate (Abcam ab97175). The plates were incubated shaking at room temperature for 1 hour before a final wash of 2×200 μL PBS-T and 3×200 μl PBS-T with a 5 minute incubation shaking at room temperature. 100 μL TMB buffer (3,3′,5,5′-tetramethylbenzidine, a chromogenic substrate for horseradish peroxidase) (Pierce 34021) was added to the plate and allowed to develop for 5-10 minutes before the samples were quenched with 50 μL 2M sulfuric acid (Sigma 258105). The absorbance was read at 450 nm on an Envision plate reader (Perkin Elmer). Results from wells (duplicate) were averaged and the 50% binding affinity calculated.
The concentration at which half-maximal binding is achieved is reported as a geometric mean with standard error in brackets. The number of independent experiments is also reported. In order to achieve a signal both ends of the molecule are required to bind (biotin to streptavidin and alpha-galactosyl to anti-alpha galactosyl antibodies) simultaneously.
On the technique in general: In an ELISA, binding on a coated surface is turned into a signal by an enzyme label.

With `CC(=O)N[C@H]1[C@H](OCCCNC(=O)COc2ccc(-c3cc(OCC(=O)NCCCO[C@@H]4O[C@H](CO)[C@@H](O[C@@H]5O[C@H](CO)[C@H](O)[C@H](O[C@H]6O[C@H](CO)[C@H](O)[C@H](O)[C@H]6O)[C@H]5O)[C@H](O)[C@H]4NC(C)=O)cc(C(=O)NCCNC(=O)CCCC[C@@H]4SC[C@@H]5NC(=O)N[C@@H]54)c3)cc2)O[C@H](CO)[C@@H](O[C@@H]2O[C@H](CO)[C@H](O)[C@H](O[C@H]3O[C@H](CO)[C@H](O)[C@H](O)[C@H]3O)[C@H]2O)[C@@H]1O` [Example 7], the EC50 worked out at 16 nM.

As for `CC(=O)NC1C(OCCCNC(=O)CCOCCOCCOCCOCCOCCOCCOCCOCCOCCOCCOCCOCCNC(=O)COc2ccc(-c3cc(OCC(=O)NCCOCCOCCOCCOCCOCCOCCOCCOCCOCCOCCOCCOCCC(=O)NCCCOC4OC(CO)C(OC5OC(CO)C(O)C(OC6OC(CO)C(O)C(O)C6O)C5O)C(O)C4NC(C)=O)cc(C(=O)NCCNC(=O)CCCCC4SCC5NC(=O)NC54)c3)cc2)OC(CO)C(OC2OC(CO)C(O)C(OC3OC(CO)C(O)C(O)C3O)C2O)C1O` (stereo not shown) [Example 49], the EC50 amounted to 26.4 nM.

`CC(=O)N[C@H]1[C@H](OCCCNC(=O)COc2cc(C(=O)NCCNC(=O)CCCC[C@@H]3SC[C@@H]4NC(=O)N[C@@H]43)nc3ccccc23)O[C@H](CO)[C@@H](O[C@@H]2O[C@H](CO)[C@H](O)[C@H](O[C@H]3O[C@H](CO)[C@H](O)[C@H](O)[C@H]3O)[C@H]2O)[C@@H]1O` [Example 10, 4-(2-((3-(((2R,3R,4R,5S,6R)-3-Acetamido-5-(((2S,3R,4S,5S,6R)-3,5-dihydroxy-6-(hydroxymethyl)-4-(((2R,3R,4S,5R,6R)-3,4,5-trihydroxy-6-(hydroxymethyl)tetrahydro-2H-pyran-2-yl)oxy)tetrahydro-2H-pyran-2-yl)oxy)-4-hydroxy-6-(hydroxymethyl)tetrahydro-2H-pyran-2-yl)oxy)propyl)amino)-2-oxoethoxy)-N-(2-(5-((3aS,4S,6aR)-2-oxohexahydro-1H-thieno[3,4-d]imidazol-4-yl)pentanamido)ethyl)quinoline-2-carboxamide]: the EC50 was 25.7 nM.

Consider `CC(=O)N[C@H]1[C@H](OCCCNC(=O)COc2cc(OCC(=O)NCCCO[C@@H]3O[C@H](CO)[C@@H](O[C@@H]4O[C@H](CO)[C@H](O)[C@H](O[C@H]5O[C@H](CO)[C@H](O)[C@H](O)[C@H]5O)[C@H]4O)[C@H](O)[C@H]3NC(C)=O)cc(-c3cc(OCC(=O)NCCCO[C@@H]4O[C@H](CO)[C@@H](O[C@@H]5O[C@H](CO)[C@H](O)[C@H](O[C@H]6O[C@H](CO)[C@H](O)[C@H](O)[C@H]6O)[C@H]5O)[C@H](O)[C@H]4NC(C)=O)cc(C(=O)NCCNC(=O)CCCC[C@@H]4SC[C@@H]5NC(=O)N[C@@H]54)c3)c2)O[C@H](CO)[C@@H](O[C@@H]2O[C@H](CO)[C@H](O)[C@H](O[C@H]3O[C@H](CO)[C@H](O)[C@H](O)[C@H]3O)[C@H]2O)[C@@H]1O` [Example 1], for which the EC50 came to 8.2 nM.

As to `CC(=O)N[C@H]1[C@H](OCCCNC(=O)CCOCCOCCOCCOCCNC(=O)COc2ccc(-c3cccc(C(=O)NCCNC(=O)CCOCCOCCOCCOCCOCCOCCOCCOCCOCCOCCOCCOCCNC(=O)CCCC[C@@H]4SC[C@@H]5NC(=O)N[C@@H]54)c3)cc2)O[C@H](CO)[C@@H](O[C@@H]2O[C@H](CO)[C@H](O)[C@H](O[C@H]3O[C@H](CO)[C@H](O)[C@H](O)[C@H]3O)[C@H]2O)[C@@H]1O` [Example 52], the EC50 is 34.9 nM.

With `CC(=O)N[C@H]1[C@H](OCCCNC(=O)COc2cc(OCC(=O)NCCCO[C@@H]3O[C@H](CO)[C@@H](O[C@@H]4O[C@H](CO)[C@H](O)[C@H](O[C@H]5O[C@H](CO)[C@H](O)[C@H](O)[C@H]5O)[C@H]4O)[C@H](O)[C@H]3NC(C)=O)cc(-c3cc(C(=O)NCCNC(=O)CCCC[C@@H]4SC[C@@H]5NC(=O)N[C@@H]54)c(OCC(=O)NCCCO[C@@H]4O[C@H](CO)[C@@H](O[C@@H]5O[C@H](CO)[C@H](O)[C@H](O[C@H]6O[C@H](CO)[C@H](O)[C@H](O)[C@H]6O)[C@H]5O)[C@H](O)[C@H]4NC(C)=O)cc3OCC(=O)NCCCO[C@@H]3O[C@H](CO)[C@@H](O[C@@H]4O[C@H](CO)[C@H](O)[C@H](O[C@H]5O[C@H](CO)[C@H](O)[C@H](O)[C@H]5O)[C@H]4O)[C@H](O)[C@H]3NC(C)=O)c2)O[C@H](CO)[C@@H](O[C@@H]2O[C@H](CO)[C@H](O)[C@H](O[C@H]3O[C@H](CO)[C@H](O)[C@H](O)[C@H]3O)[C@H]2O)[C@@H]1O` [Example 9], the EC50 is 10.1 nM.

For `CC(=O)N[C@H]1[C@H](OCCCNC(=O)CCOCCOCCOCCOCCOCCOCCOCCOCCOCCOCCOCCOCCNC(=O)COc2cccc(C(=O)NCCNC(=O)CCOCCOCCOCCOCCOCCOCCOCCOCCOCCOCCOCCOCCNC(=O)CCCC[C@@H]3SC[C@@H]4NC(=O)N[C@@H]43)c2)O[C@H](CO)[C@@H](O[C@@H]2O[C@H](CO)[C@H](O)[C@H](O[C@H]3O[C@H](CO)[C@H](O)[C@H](O)[C@H]3O)[C@H]2O)[C@@H]1O` [Example 50], the EC50 turned out to be 26.1 nM.

For `CC(=O)NC1C(OCCCNC(=O)CCOCCOCCOCCOCCOCCOCCOCCOCCOCCOCCOCCOCCNC(=O)COc2cc(OCC(=O)NCCOCCOCCOCCOCCOCCOCCOCCOCCOCCOCCOCCOCCC(=O)NCCCOC3OC(CO)C(OC4OC(CO)C(O)C(OC5OC(CO)C(O)C(O)C5O)C4O)C(O)C3NC(C)=O)cc(-c3cc(OCC(=O)NCCOCCOCCOCCOCCOCCOCCOCCOCCOCCOCCOCCOCCC(=O)NCCCOC4OC(CO)C(OC5OC(CO)C(O)C(OC6OC(CO)C(O)C(O)C6O)C5O)C(O)C4NC(C)=O)cc(C(=O)NCCNC(=O)CCCCC4SCC5NC(=O)NC54)c3)c2)OC(CO)C(OC2OC(CO)C(O)C(OC3OC(CO)C(O)C(O)C3O)C2O)C1O` (stereo not shown) [Example 56], the EC50 is 16.3 nM.

For `CC(=O)NC1C(OCCCNC(=O)CCOCCOCCOCCOCCNC(=O)COc2cc(OCC(=O)NCCOCCOCCOCCOCCC(=O)NCCCOC3OC(CO)C(OC4OC(CO)C(O)C(OC5OC(CO)C(O)C(O)C5O)C4O)C(O)C3NC(C)=O)cc(C(=O)NCCNC(=O)CCOCCOCCOCCOCCOCCOCCOCCOCCOCCOCCOCCOCCNC(=O)CCCCC3SCC4NC(=O)NC43)c2)OC(CO)C(OC2OC(CO)C(O)C(OC3OC(CO)C(O)C(O)C3O)C2O)C1O` (stereo not shown) [Example 21], the EC50 amounted to 14.8 nM.

Consider `CC(=O)N[C@H]1[C@H](OCCCNC(=O)COc2ccc(-c3cccc(C(=O)NCCNC(=O)CCCC[C@@H]4SC[C@@H]5NC(=O)N[C@@H]54)c3)cc2)O[C@H](CO)[C@@H](O[C@@H]2O[C@H](CO)[C@H](O)[C@H](O[C@H]3O[C@H](CO)[C@H](O)[C@H](O)[C@H]3O)[C@H]2O)[C@@H]1O` [Example 11], for which the EC50 came out at 19 nM.

In the case of `CC(=O)NC1C(OCCCNC(=O)CCOCCOCCOCCOCCNC(=O)COc2cc(OCC(=O)NCCOCCOCCOCCOCCC(=O)NCCCOC3OC(CO)C(OC4OC(CO)C(O)C(OC5OC(CO)C(O)C(O)C5O)C4O)C(O)C3NC(C)=O)cc(-c3cc(OCC(=O)NCCOCCOCCOCCOCCC(=O)NCCCOC4OC(CO)C(OC5OC(CO)C(O)C(OC6OC(CO)C(O)C(O)C6O)C5O)C(O)C4NC(C)=O)cc(C(=O)NCCOCCOCCOCCOCCC(=O)NCCNC(=O)CCCCC4SCC5NC(=O)NC54)c3)c2)OC(CO)C(OC2OC(CO)C(O)C(OC3OC(CO)C(O)C(O)C3O)C2O)C1O` (stereo not shown) [Example 58], the EC50 worked out at 37.6 nM.

As for `CC(=O)NC1C(OCCCNC(=O)CCOCCOCCOCCOCCNC(=O)COc2ccc(-c3cc(OCC(=O)NCCOCCOCCOCCOCCC(=O)NCCCOC4OC(CO)C(OC5OC(CO)C(O)C(OC6OC(CO)C(O)C(O)C6O)C5O)C(O)C4NC(C)=O)cc(C(=O)NCCNC(=O)CCOCCOCCOCCOCCOCCOCCOCCOCCOCCOCCOCCOCCNC(=O)CCCCC4SCC5NC(=O)NC54)c3)cc2)OC(CO)C(OC2OC(CO)C(O)C(OC3OC(CO)C(O)C(O)C3O)C2O)C1O` (stereo not shown) [Example 53], the EC50 amounted to 34.9 nM.

`CC(=O)NC1C(OCCCNC(=O)COc2cc(OCC(=O)NCCCOC3OC(CO)C(OC4OC(CO)C(O)C(OC5OC(CO)C(O)C(O)C5O)C4O)C(O)C3NC(C)=O)cc(C(=O)NCCNC(=O)CCOCCOCCOCCOCCOCCOCCOCCOCCOCCOCCOCCOCCNC(=O)CCCCC3SCC4NC(=O)NC43)c2)OC(CO)C(OC2OC(CO)C(O)C(OC3OC(CO)C(O)C(O)C3O)C2O)C1O` [Example 6, 1-{5-[(3aS,4S,6aR)-2-Oxo-hexahydro-1H-thieno[3,4-d]imidazolidin-4-yl]pentanamido}-N-(2-{[3,5-bis({[(3-{[(2R,5S)-5-{[(2S,5S)-3,5-dihydroxy-6-(hydroxymethyl)-4-{[(2R,5R)-3,4,5-trihydroxy-6-(hydroxymethyl)oxan-2-yl]oxy}oxan-2-yl]oxy}-3-acetamido-4-hydroxy-6-(hydroxymethyl)oxan-2-yl]oxy}propyl)carbamoyl]methoxy})phenyl]formamido}ethyl)-3,6,9,12,15,18,21,24,27,30,33,36-dodecaoxanonatriacontan-39-amide]: the EC50 is 5.8 nM.
